This note sets out measurements from patent US9676701B2, “Cyclopropylamine derivatives useful as LSD1 inhibitors” (Oryzon Genomics, S.A., priority 2010, dated 2017).

Structures can show the parent of a compound that is named as a salt.

The target in assay [1] is MAO-A (Homo sapiens (Human), UniProt P21397). To be noted: read-out: MAO-A (Ki).
Assay [2] deals with Human recombinant LSD1 protein (Homo sapiens (Human), UniProt O60341). The assay is described as follows: biochemical.
Description: The ability of the compounds of the invention to inhibit LSD1 can be tested as follows. Human recombinant LSD1 protein was purchased from BPS Bioscience Inc. In order to monitor LSD1 enzymatic activity and/or its inhibition rate by our inhibitor(s) of interest, di-methylated H3-K4 peptide (Millipore) was chosen as a substrate. The demethylase activity was estimated, under aerobic conditions, by measuring the release of H2O2 produced during the catalytic process, using the Amplex® Red peroxide/peroxidase-coupled assay kit (Invitrogen).
Within the experiment, each concentration of inhibitor was tested in triplicate. […] The enzymatic reactions were set up in a 50 mM sodium phosphate, pH 7.4 buffer. At the end of the incubation, Amplex® Red reagent and horseradish peroxidase (HPR) solution were added to the reaction according to the recommendations provided by the supplier (Invitrogen), and left to incubate for 30 extra minutes at room temperature in the dark. A 1 μM H2O2 solution was used as a control of the kit efficiency.
The Ki (IC50) of each inhibitor was estimated at half of the maximum activity.
In assay [3] the target is MAO-B (Homo sapiens (Human), UniProt P27338). To be noted: read-out: MAO-B (Ki).
Chain of MAO-B (P27338 whole entry): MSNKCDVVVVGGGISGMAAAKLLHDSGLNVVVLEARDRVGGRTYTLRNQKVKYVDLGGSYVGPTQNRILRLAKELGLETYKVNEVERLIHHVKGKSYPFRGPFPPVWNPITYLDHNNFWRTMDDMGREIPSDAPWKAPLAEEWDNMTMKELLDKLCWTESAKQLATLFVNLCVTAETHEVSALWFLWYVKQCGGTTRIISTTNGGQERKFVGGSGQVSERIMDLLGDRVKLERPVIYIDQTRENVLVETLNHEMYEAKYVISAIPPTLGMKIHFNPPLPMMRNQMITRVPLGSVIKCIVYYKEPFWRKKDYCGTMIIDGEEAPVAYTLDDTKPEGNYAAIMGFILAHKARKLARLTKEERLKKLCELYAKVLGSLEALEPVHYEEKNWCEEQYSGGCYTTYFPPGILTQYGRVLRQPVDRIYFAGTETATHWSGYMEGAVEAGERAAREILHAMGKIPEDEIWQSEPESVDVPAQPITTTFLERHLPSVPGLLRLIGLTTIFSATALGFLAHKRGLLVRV

Chain of MAO-A (P21397 whole entry): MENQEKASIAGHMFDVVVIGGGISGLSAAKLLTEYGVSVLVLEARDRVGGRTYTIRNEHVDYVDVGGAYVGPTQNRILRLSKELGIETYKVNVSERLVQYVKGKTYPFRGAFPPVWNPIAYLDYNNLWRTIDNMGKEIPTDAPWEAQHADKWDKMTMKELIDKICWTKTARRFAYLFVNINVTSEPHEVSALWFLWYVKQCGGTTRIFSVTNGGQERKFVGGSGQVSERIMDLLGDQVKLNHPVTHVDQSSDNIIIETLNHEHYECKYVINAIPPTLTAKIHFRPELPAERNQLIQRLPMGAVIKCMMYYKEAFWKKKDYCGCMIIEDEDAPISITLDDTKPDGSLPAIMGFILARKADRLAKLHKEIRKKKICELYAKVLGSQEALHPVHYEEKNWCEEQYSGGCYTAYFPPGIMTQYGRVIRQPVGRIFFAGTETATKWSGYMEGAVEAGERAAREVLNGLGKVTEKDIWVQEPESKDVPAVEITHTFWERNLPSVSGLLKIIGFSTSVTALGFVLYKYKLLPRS

By Ki is commonly meant a dissociation constant, usually derived from enzyme kinetics or from competition with a known ligand. As to `NC(=O)c1cccc(-c2ccc([C@H]3C[C@@H]3N)cn2)c1` (relative stereo) [Example 19, 3-(5-((trans)-2-aminocyclopropyl)pyridin-2-yl)benzamide hydrochloride], the values for the Ki in assay [1], in assay [2] and in assay [3] were 1000 to 40000 nM, 100 to 1000 nM and 1000 to 40000 nM, respectively.

As for `N[C@H]1C[C@@H]1c1ccc(-c2ccc(F)c(O)c2)nc1` (relative stereo) [Example 23, 5-(5-((trans)-2-aminocyclopropyl)pyridin-2-yl)-2-fluorophenol hydrochloride], the Ki in assay [1] was in the range of 1000 to 40000 nM; in assay [2], 1 to 100 nM; in assay [3], 1000 to 40000 nM.

For `N[C@H]1C[C@@H]1c1ccc(-c2cc(O)cc(F)c2)nc1` (relative stereo) [Example 24, 3-(5-((trans)-2-aminocyclopropyl)pyridin-2-yl)-5-fluorophenol hydrochloride], the Ki in assay [1] was 1000 to 40000 nM; in assay [2] it was 1 to 100 nM; in assay [3], 1000 to 40000 nM.

With `N[C@H]1C[C@@H]1c1ccc(-c2cc(O)ccc2F)nc1` (relative stereo) [Example 25, 3-(5-((trans)-2-aminocyclopropyl)pyridin-2-yl)-4-fluorophenol hydrochloride], the Ki in assay [1] fell in the range of 1000 to 40000 nM; in assay [2], 1 to 100 nM; in assay [3], 1000 to 40000 nM.

Turning to `N[C@H]1C[C@@H]1c1ccc(-c2cccc(O)c2F)nc1` (relative stereo) [Example 26, 3-(5-((trans)-2-aminocyclopropyl)pyridin-2-yl)-2-fluorophenol hydrochloride], the Ki in assay [1] was 1000 to 40000 nM; in assay [2], 100 to 1000 nM; in assay [3], 1000 to 40000 nM.

`N[C@H]1C[C@@H]1c1ccc(-c2cc(O)cc(Cl)c2)nc1` (relative stereo) [Example 29, 3-(5-((trans)-2-aminocyclopropyl)pyridin-2-yl)-5-chlorophenol hydrochloride]: the Ki lay within 1000 to 40000 nM in assay [1], 1 to 100 nM in assay [2] and 1000 to 40000 nM in assay [3].

With `N[C@H]1C[C@@H]1c1ccc(-c2cccc(C(F)(F)F)c2F)nc1` (relative stereo) [Example 30, (trans)-2-(6-(2-fluoro-3-(trifluoromethyl)phenyl)pyridin-3-yl)cyclopropanamine hydrochloride], the Ki lay in the range of 1000 to 40000 nM in assay [1], 100 to 1000 nM in assay [2] and 1000 to 40000 nM in assay [3].

As to `N[C@H]1C[C@@H]1c1ccc(-c2ccc(Cl)s2)nc1` (relative stereo) [Example 31, (trans)-2-(6-(5-chlorothiophen-2-yl)pyridin-3-yl)cyclopropanamine hydrochloride], the Ki in assay [1] is 1000 to 40000 nM; in assay [2], 1 to 100 nM; in assay [3] it was 1000 to 40000 nM.

With `N[C@H]1C[C@@H]1c1ccc(-c2ccc3sccc3c2)nc1` (relative stereo) [Example 34, (trans)-2-(6-(benzo[b]thiophen-5-yl)pyridin-3-yl)cyclopropanamine hydrochloride], the Ki was 1000 to 40000 nM in assay [1], 100 to 1000 nM in assay [2] and 1000 to 40000 nM in assay [3].

For the compound `COc1cc(-c2ccc([C@H]3C[C@@H]3N)cn2)ccc1F` (relative stereo) [Example 38, (trans)-2-(6-(4-fluoro-3-methoxyphenyl)pyridin-3-yl)cyclopropanamine hydrochloride], the Ki in assay [1] was in the range of 1000 to 40000 nM; in assay [2] it was 100 to 1000 nM; in assay [3], 1000 to 40000 nM.

Regarding `COc1cc(F)cc(-c2ccc([C@H]3C[C@@H]3N)cn2)c1` (relative stereo) [Example 39, (trans)-2-(6-(3-fluoro-5-methoxyphenyl)pyridin-3-yl)cyclopropanamine hydrochloride], the Ki in assay [1] is 1000 to 40000 nM; in assay [2], 100 to 1000 nM; in assay [3] it was 1000 to 40000 nM.

Take `COc1ccc(F)c(-c2ccc([C@H]3C[C@@H]3N)cn2)c1` (relative stereo) [Example 40, (trans)-2-(6-(2-fluoro-5-methoxyphenyl)pyridin-3-yl)cyclopropanamine hydrochloride]: the results for the inhibitory constant (Ki) in assay [1], in assay [2] and in assay [3] were 1000 to 40000 nM, 100 to 1000 nM and 1000 to 40000 nM, respectively.

As for `COc1cccc(-c2ccc([C@H]3C[C@@H]3N)cn2)c1F` (relative stereo) [Example 41, (trans)-2-(6-(2-fluoro-3-methoxyphenyl)pyridin-3-yl)cyclopropanamine hydrochloride], the Ki in assay [1] fell in the range of 1000 to 40000 nM; in assay [2], 100 to 1000 nM; in assay [3] it was 1000 to 40000 nM.

Turning to `COc1ccc(Cl)c(-c2ccc([C@H]3C[C@@H]3N)cn2)c1` (relative stereo) [Example 43, (trans)-2-(6-(2-chloro-5-methoxyphenyl)pyridin-3-yl)cyclopropanamine hydrochloride], the Ki in assay [1] lay within 1000 to 40000 nM; in assay [2] it was 100 to 1000 nM; in assay [3], 1000 to 40000 nM.

In the case of `Cc1ccc(-c2ccc([C@H]3C[C@@H]3N)cn2)cc1O` (relative stereo) [Example 46, 5-(5-((trans)-2-aminocyclopropyl)pyridin-2-yl)-2-methylphenol hydrochloride], the Ki in assay [1] was in the range of 1000 to 40000 nM; in assay [2] it was 1 to 100 nM; in assay [3] it was 1000 to 40000 nM.

Regarding `N[C@H]1C[C@@H]1c1ccc(-c2cc(O)ccc2Cl)nc1` (relative stereo) [Example 47, 3-(5-((trans)-2-aminocyclopropyl)pyridin-2-yl)-4-chlorophenol hydrochloride], the Ki lay within 1000 to 40000 nM in assay [1], 100 to 1000 nM in assay [2] and 1000 to 40000 nM in assay [3].

In the case of `N[C@H]1C[C@@H]1c1ccc(-c2cc(C(F)(F)F)ccc2F)nc1` (relative stereo) [Example 49, (trans)-2-(6-(2-fluoro-5-(trifluoromethyl)phenyl)pyridin-3-yl)cyclopropanamine hydrochloride], the Ki was in the range of 1000 to 40000 nM in assay [1], 100 to 1000 nM in assay [2] and 1000 to 40000 nM in assay [3].

Regarding `N[C@H]1C[C@@H]1c1ccc(-c2cc(C(F)(F)F)ccc2Cl)nc1` (relative stereo) [Example 50, (trans)-2-(6-(2-chloro-5-(trifluoromethyl)phenyl)pyridin-3-yl)cyclopropanamine hydrochloride], the inhibition constant Ki in assay [1] is 1000 to 40000 nM; in assay [2] it was 100 to 1000 nM; in assay [3], 1000 to 40000 nM.

Turning to `CC(=O)Nc1cccc(-c2ccc([C@H]3C[C@@H]3N)cn2)c1` (relative stereo) [Example 52, N-(3-(5-((trans)-2-aminocyclopropyl)pyridin-2-yl)phenyl)acetamide hydrochloride], the Ki in assay [1] was 1000 to 40000 nM; in assay [2], 100 to 1000 nM; in assay [3], 1000 to 40000 nM.

As for `N[C@H]1C[C@@H]1c1ccc(-c2cc3ccccc3s2)nc1` (relative stereo) [Example 54, (trans)-2-(6-(benzo[b]thiophen-2-yl)pyridin-3-yl)cyclopropanamine hydrochloride], the Ki lay within 1000 to 40000 nM in assay [1], 100 to 1000 nM in assay [2] and 1000 to 40000 nM in assay [3].

As for `N[C@H]1C[C@@H]1c1ccc(-c2csc3ccccc23)nc1` (relative stereo) [Example 55, (trans)-2-(6-(benzo[b]thiophen-3-yl)pyridin-3-yl)cyclopropanamine hydrochloride], the results for the Ki in assay [1], in assay [2] and in assay [3] were 1000 to 40000 nM, 100 to 1000 nM and 1000 to 40000 nM, respectively.

On to `N#Cc1ccc(-c2ccc([C@H]3C[C@@H]3N)cn2)s1` (relative stereo) [Example 56, 5-(5-((trans)-2-aminocyclopropyl)pyridin-2-yl)thiophene-2-carbonitrile hydrochloride], for which the Ki was 1000 to 40000 nM in assay [1], 1 to 100 nM in assay [2] and 1000 to 40000 nM in assay [3].

As to `Cc1cscc1-c1ccc([C@H]2C[C@@H]2N)cn1` (relative stereo) [Example 57, (trans)-2-(6-(4-methylthiophen-3-yl)pyridin-3-yl)cyclopropanamine hydrochloride], the Ki lay in the range of 1000 to 40000 nM in assay [1], 100 to 1000 nM in assay [2] and 1000 to 40000 nM in assay [3].

`COc1cc(-c2ccc([C@H]3C[C@@H]3N)cn2)cc(F)c1F` (relative stereo) [Example 58, (Trans)-2-(6-(3,4-difluoro-5-methoxyphenyl)pyridin-3-yl)cyclopropanamine hydrochloride]: the Ki in assay [1] lay within 1000 to 40000 nM; in assay [2], 100 to 1000 nM; in assay [3] it was 1000 to 40000 nM.

Take `N[C@H]1C[C@@H]1c1ccc(-c2ccc3c(c2)NC(=O)C3)nc1` (relative stereo) [Example 62, 6-(5-((trans)-2-aminocyclopropyl)pyridin-2-yl)indolin-2-one hydrochloride]: the Ki in assay [1] was in the range of 1000 to 40000 nM; in assay [2], 100 to 1000 nM; in assay [3], 1000 to 40000 nM.

Turning to `CC(C)S(=O)(=O)Nc1cccc(-c2ccc([C@H]3C[C@@H]3N)cn2)c1` (relative stereo) [Example 65, N-(3-(5-((trans)-2-aminocyclopropyl)pyridin-2-yl)phenyl)propane-2-sulfonamide hydrochloride], the Ki in assay [1] fell in the range of 1000 to 40000 nM; in assay [2] it was 1 to 100 nM; in assay [3], 1000 to 40000 nM.

On to `CS(=O)(=O)Nc1ccccc1-c1ccc([C@H]2C[C@@H]2N)cn1` (relative stereo) [Example 71, N-(2-(5-((trans)-2-aminocyclopropyl)pyridin-2-yl)phenyl)methanesulfonamide hydrochloride], for which the values for the Ki in assay [1], in assay [2] and in assay [3] were 1000 to 40000 nM, 100 to 1000 nM and 1000 to 40000 nM, respectively.

Consider `COc1ccc(C#N)cc1-c1ccc([C@H]2C[C@@H]2N)cn1` (relative stereo) [Example 72, 3-(5-((trans)-2-aminocyclopropyl)pyridin-2-yl)-4-methoxybenzonitrile hydrochloride], for which the figures for the Ki in assay [1], in assay [2] and in assay [3] were 1000 to 40000 nM, 100 to 1000 nM and 1000 to 40000 nM, respectively.

On to `N[C@H]1C[C@@H]1c1ccc(-c2cccc(C(F)(F)F)c2)nc1Cl` (relative stereo) [Example 76, (trans)-2-(2-chloro-6-(3-(trifluoromethyl)phenyl)pyridin-3-yl)cyclopropanamine hydrochloride], for which the Ki was in the range of 1000 to 40000 nM in assay [1], 100 to 1000 nM in assay [2] and 1000 to 40000 nM in assay [3].
